Test results from US20020192256A1, “Water miscible pesticide containing a synergistic cocktail of plant alkaloids” (priority 2000, published 2002).

Tested on: small green leafhoppers
Test: Insecticidal activity of pesticides on small green leafhoppers on tea trees (Table IX)
Format: in vivo
Set-up: 1d after Spray Efficacy (%) / 3d after Spray Efficacy (%) / 7d after Spray Efficacy (%): concentration or dose not given beside the values
Description: Ninety-eight kilograms of this pesticide was mixed with 2 Kg of imidacloprid with low toxicity to mammals. The mixture was tested for its insecticidal efficacy on small green leafhoppers on tea trees and compared with those of 40% dichlorophos emulsion and imidacloprid, a highly toxic pesticide, and the extract of Sophora alopecuroides as described in section 1) under “Extract of alkaloids from plants”.

| Structure (SMILES) | 1d after Spray Efficacy (%) | 1d after Spray Pests +/− Rate (%) | 3d after Spray Efficacy (%) | 3d after Spray Pests +/− Rate (%) | 7d after Spray Efficacy (%) | 7d after Spray Pests +/− Rate (%) |
| --- | --- | --- | --- | --- | --- | --- |
| COP(=O)(OC)OC=C(Cl)Cl [Dichlorphos, dichlorophos] | 68.8% | −43.48% | 64.43% | −60.87% | 60.32% | −60.32% |
| O=[N+]([O-])NC1=NCCN1Cc1ccc(Cl)nc1 [Imidacloprid, imidacloprid] | 67.8% | −48.47% | 61.3% | −60.3% | 60.7% | −60.7% |
